# Results published in publication PMC5445929 (Journal of fluorine chemistry, 2016).
# Read-outs that look alike come from different tables or passages of the source.
# What was measured:
# M. tuberculosis Erdman = details: cited from earlier work
# [1] = metabolic stability against liver microsomes; assay type: in vitro ADME; details: 4 h at 37 °C, LC–MS/MS
# M. tuberculosis H37Rv = details: cited from earlier work
# [2] = metabolic stability against liver microsomes; assay type: in vitro ADME; details: 4 h at 37 °C, LC–MS/MS; remark: listed apart in the source
# [3] = metabolic stability against liver microsomes; assay type: in vitro ADME, mouse; details: murine microsomes, 4 h at 37 °C, LC–MS/MS
compound,measurement,setting,value
"NNC(=O)c1ccncc1 [INH, isoniazid]",log10 CFU Spleen,M. tuberculosis Erdman; route IP,0 ± 0 n = 5 log10 CFU
same,Δ log10 CFU Lungs (test vs control group means),M. tuberculosis Erdman; route IP,−6.57 log10 CFU
same,Δ log10 CFU Spleen (test vs control group means),M. tuberculosis Erdman; route IP,−4.96 log10 CFU
same,log10 CFU Spleen,M. tuberculosis Erdman; route PO,0 ± 0 n = 5 log10 CFU
same,Δ log10 CFU Lungs (test vs control group means),M. tuberculosis Erdman; route PO,−6.31 log10 CFU
same,Δ log10 CFU Spleen (test vs control group means),M. tuberculosis Erdman; route PO,−3.89 log10 CFU
same,log10 CFU Lungs,"M. tuberculosis Erdman; route PO, test compounds 50 mg/kg b.i.d., day 5-15 post infection",0 ± 0 n = 5 log10 CFU
"2-cyclohexyl-5-dimethylamino-6-(4-trifluorimethoxy)benzamido-1,3-benzoxazole [Compound 12]",% metabolic clearance rat,[1],22%
same,MIC (μg/mL) H37Rv,M. tuberculosis H37Rv,6.25 µg/mL
same,% metabolic clearance human,[2],56%
same,% metabolic clearance mouse,[3],71%
